The values that follow come from patent EP1935887A1, “Heterocyclic substituted carbonyl derivatives and their use as dopamine D3 receptor ligands” (Aventis Pharmaceuticals Inc., priority 2001, dated 2002).

T1 sequence (P35462 whole entry): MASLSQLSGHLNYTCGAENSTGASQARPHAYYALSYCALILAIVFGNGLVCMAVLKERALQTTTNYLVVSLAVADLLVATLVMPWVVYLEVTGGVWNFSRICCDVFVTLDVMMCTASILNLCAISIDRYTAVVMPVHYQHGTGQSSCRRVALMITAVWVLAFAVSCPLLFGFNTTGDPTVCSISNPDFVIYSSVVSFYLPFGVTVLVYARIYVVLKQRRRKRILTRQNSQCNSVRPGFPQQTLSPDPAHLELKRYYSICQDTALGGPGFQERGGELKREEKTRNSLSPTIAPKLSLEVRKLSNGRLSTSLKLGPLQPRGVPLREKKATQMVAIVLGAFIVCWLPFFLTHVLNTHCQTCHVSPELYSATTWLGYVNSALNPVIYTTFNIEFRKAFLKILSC

One assay addresses T1, Cloned Human Dopamine D3 Receptors (Homo sapiens, UniProt P35462).
T1 construct: expressed in transfected cells; membrane homogenate
As to the kind of experiment: [N-Methyl-3H]Spiroperidol binding to cloned human dopamine D3 receptors. As to conditions: Table 2; unit inferred; read-out: d3Ki. From the text:
[N-Methyl-^3H]Spiroperidol Binding to Cloned Human Dopamine D3 Receptors
This assay measures the in vitro activity of compounds on cloned human dopamine (D3) receptors and predicts the direct dopamine-blocking properties of putative neuropsychiatric agents at human dopamine D3 receptors.
The D3 gene was isolated from a human striatal cDNA library (Stratagene). The gene was sequenced and sub-cloned into the expression vector RC/RSV (Invitrogen). CHO (Chinese Hamster Ovary) cells were stably transfected with 10 µg of the D3/RSV plasmid using the DOTAP method from Boehringer Mannheim and 72 clones that were G418 resistant were isolated. Using mRNA and binding displacement data a single high expressing clone was identified. This clone was then grown in large batches for the purpose of developing a 96 well format assay.
• 1. One plate (10 cm) with approximately 2-3 million D3 cells per plate is incubated with 1 ml of Trypsin-EDTA at room temperature for -2 min or until cells have lifted off plates. Four ml of Ham's F12 + 10% Fetal Bovine Serum + 1% Penicillin/Streptomycin + G418 (400 µg/ml) medium are added to resuspend cells and 1 ml of this is added to each large plate (15 cm) containing 19 ml of the same medium as mentioned above. • 2. The 5 large plates are incubated at 37°C + 5% CO2 for - 3 days or until the cells are confluent. • 3. After these plates are confluent, they are split into 10 large plates. Medium is aspirated off, 2 ml of Trypsin-EDTA are added to each plate and plates are incubated at RT for 2 min or until cells have lifted off the plate. Eight ml of the F12 medium (same medium as #1 above) are added to each plate (10 ml total) to resuspend the cells and 5 ml are transferred to the 2 new plates containing 15 ml of the F12 media. • 4. The 10 large plates are incubated at 37°C + 5% CO2 for ∼ 2 days or until the cells are confluent. • 5. The 10 large plates are split into 60 large plates (using Trypsin-EDTA as #3 except 4 ml of F12 medium are added to resuspend cells and 1 ml is aliquoted to 6 new plates containing 19 ml of F12 medium each). • 6. Plates are incubated at 37°C + 5% CO2 for - 3 days or until cell are confluent. • 7. The 60 large plates are then split into 60 roller bottles (100-150 million cells/bottle). Medium is aspirated off , 2 ml of Trypsin-EDTA are added to each plate and incubated at RT for -2 minutes or until cells have lifted off plates. Eight ml of F12 medium are added to each plate to resuspend cells and the entire 10 ml are added to 1 roller bottle containing 90 ml of the F12 medium. • 8. The 60 roller bottles are immediately placed on their sides and transferred to the roller bottle incubator. They are incubated at 37°C + 5% CO2 for ~ 3-5 days. Cells are spun at 30-40% motor speed in the Forma incubator. • 9. Medium is poured off and cells are washed 2X in PBS. • 10. Cells are then scraped off in 20 ml of PBS and the bottles are rinsed again with 5 ml of PBS to remove any remaining cells. Cells are stored on ice before membrane prepration. • 11. The yield for 60 D3 roller bottles has varied from - 260-500 mg. Note: All tissue culture reagents are from Gibco-BRL.
The cells are harvested into 250 ml centrifuge tubes with 100 volumes of cold phosphate buffered saline (PBS) and spun down (1200xG for 10 min at 4°C). The medium is removed and 100 ml PBS are added to each centrifuge tube, cells are resuspened and spun down again. The PBS is removed and the final pellet is homogenized in an appropriate volume of 10% DMSO with a polytron on ice at a medium setting.
A 200 µl sample membrane homogenate is added to 200 µl of 1% SDS, vortexed and allowed to stand for 5 min. Aliquots (25, 50 and 100 µl) of this mixture are assayed in duplicate following the standard Bio-Rad DC protein assay protocol (kit catalog number 500-0112) and using reagent S. Absorbance readings are made at 750 nm (note: the most accurate protein OD readings are between 0.1-0.5 units). […]
With `CN(C(=O)CCCCN1CCN(c2csc3cc(F)ccc23)CC1)c1ccccc1` [compound 822129], the Ki turned out to be 38 nM.
Regarding `CCN(C(=O)CCCCN1CCN(c2csc3cc(F)ccc23)CC1)c1ccc2c(c1)OCO2` [compound 822130], the Ki is 51 nM.
On to `COc1ccc(N(C)C(=O)CCCCN2CCN(c3csc4cc(F)ccc34)CC2)cc1` [compound 822131], for which the Ki came to 61 nM.
`CCN(C(=O)CCCCN1CCN(c2csc3cc(F)ccc23)CC1)c1c(C)cccc1O` [compound 822132]: the Ki was 18 nM.
Same read-out and setting: in the case of `CN(C(=O)CCCCN1CCN(c2csc3cc(F)ccc23)CC1)c1ccc(Cl)cc1` [compound 822133] it was 17 nM; in that of `O=C(CCCCN1CCN(c2csc3cc(F)ccc23)CC1)Nc1cccc2ccccc12` [compound 822134], 82 nM.
As to `O=C(CCCCN1CCN(c2csc3cc(F)ccc23)CC1)Nc1ccccc1F` [compound 822135], the Ki was 3.6 nM.
With `CC(C)(C)c1ccc(NC(=O)CCCCN2CCN(c3csc4cc(F)ccc34)CC2)cc1` [compound 822136], the Ki was found to be 207 nM.
On to `O=C(CCCCN1CCN(c2csc3cc(F)ccc23)CC1)Nc1cccc(Oc2ccccc2)c1` [compound 822137], for which the Ki worked out at 36 nM.
As for `CN(C(=O)CCCCN1CCN(c2csc3cc(F)ccc23)CC1)c1cccc2ccccc12` [compound 822138], the Ki was found to be 81 nM.
For the molecule `CN(C(=O)CCCCN1CCN(c2csc3cc(F)ccc23)CC1)c1ccccc1F` [compound 822139], the Ki is 21.2 nM.
On the same count and under the same terms, the value for `CN(C(=O)CCCCN1CCN(c2csc3cc(F)ccc23)CC1)c1ccc(C(C)(C)C)cc1` [compound 822140] was 12.8 nM; that for `CN(C(=O)CCCCN1CCN(c2csc3cc(F)ccc23)CC1)c1cccc(Oc2ccccc2)c1` [compound 822142] was 39.1 nM; that for `O=C(CCCCN1CCN(c2csc3cc(F)ccc23)CC1)N(Cc1ccccc1)c1cccc(Oc2ccccc2)c1` [compound 822143] was 338 nM.
For `COc1ccc(N(C)C(=O)CCCN2CCN(c3csc4cc(F)ccc34)CC2)cc1` [compound 822144], the Ki turned out to be 144 nM.
For `O=C(CCCN1CCN(c2csc3cc(F)ccc23)CC1)Nc1cccc2ccccc12` [compound 822145], the Ki was found to be 176 nM.
As for `CC(C)(C)c1ccc(NC(=O)CCCN2CCN(c3csc4cc(F)ccc34)CC2)cc1` [compound 822147], the Ki stood at 217 nM.
Take `O=C(CCCN1CCN(c2csc3cc(F)ccc23)CC1)Nc1cccc(Oc2ccccc2)c1` [compound 822148]: the Ki was found to be 41.4 nM.
In the case of `O=C(NC1CC1)[C@@H]1C[C@H]1CN1CCN(c2csc3cc(C(F)(F)F)ccc23)CC1` [compound 822202], the Ki was determined as 8.1 nM.
For `O=C(NCc1cccnc1)[C@@H]1C[C@H]1CN1CCN(c2csc3cc(C(F)(F)F)ccc23)CC1` [compound 822203], the Ki was 30 nM.
Regarding `O=C(NCc1ccc2c(c1)OCO2)[C@@H]1C[C@H]1CN1CCN(c2csc3cc(C(F)(F)F)ccc23)CC1` [compound 822204], the Ki was determined as 12.6 nM.
In the case of `CC1C(CN2CCN(c3csc4cc(C(F)(F)F)ccc34)CC2)C1C(=O)NC1CCC1` (stereo not shown) [compound 825857], the Ki was 137 nM.
As to `CC1C(CN2CCN(c3csc4cc(C(F)(F)F)ccc34)CC2)C1C(=O)NC1CCCCC1` (stereo not shown) [compound 825860], the Ki came to 130 nM.

The assay is the same for the next values; noted with them: read-out: d3Ki.
Consider `O=C(NCc1ccccn1)[C@@H]1CCC[C@H]1N1CCN(c2csc3cc(F)ccc23)CC1` [compound 825825], for which the Ki is 152 nM.
On to `O=C(NC1CC1)[C@@H]1CCC[C@H]1N1CCN(c2csc3cc(F)ccc23)CC1` [compound 825827], for which the Ki turned out to be 54.8 nM.
The same measure, in the same setting: the value for `CN(C)c1ccc(CNC(=O)[C@@H]2CCC[C@H]2N2CCN(c3csc4cc(F)ccc34)CC2)cc1` [compound 825828] was 21.8 nM.
`O=C(NCc1ccccc1)[C@@H]1CCC[C@H]1N1CCN(c2csc3cc(F)ccc23)CC1` [compound 825830]: the Ki was found to be 64.6 nM.
Take `O=C(NCc1cccs1)[C@@H]1CCC[C@H]1N1CCN(c2csc3cc(F)ccc23)CC1` [compound 825832]: the Ki stood at 60.3 nM.
